We go through seven compounds from patent publication US6987017B2, “Methods for producing L-isoleucine” (Massachusetts Institute of Technology, priority 1999, dated 2006).

The test system of assay [1] is C. glutamicum ATCC 21799 pAPE7 tdcB. It counts as cell-based, Corynebacterium glutamicum. Conditions: defined medium with supplement (casamino acids 2 g·l^−1, amino acids 0.5 g·l^−1 each), 150 mg/l IPTG, flasks. Here is the method: Defined medium for Corynebacterium glutamicum contained the following ingredients (per liter): glucose, 35 g; NaCl, 2 g; citrate (trisodium salt, dihydrate), 3 g; CaCl2.2H2O, 0.1 g; MgSO4.7H2O, 0.5 g; Na2EDTA.2H2O, 75 mg; FeSO4.7H2O, 50 mg; 100× salt solution, 20 ml; K2HPO4, 4 g; KH2PO4, 2 g; (NH4)2SO4, 7.5 g; urea, 3.75 g; leucine 0.85 g; thiamine, 0.45 mg; biotin, 0.45 mg; pantothenic acid, 4.5 mg (pH 7.0). The salt solution contained the following ingredients (per liter): MnSO4, 200 mg; Na2B4O7.10H2O, 20 mg; (NH4)6Mo7O24.4H2O, 10 mg; FeCl3.6H2O, 200 mg; ZnSO4.7H2O, 50 mg; CuCl2.2H2O, 20 mg (pH 2.0). When appropriate, kanamycin (150 mg/liter) and isopropyl-β-D-thiogalactopyranoside (IPTG) (150 mg/l) was used.
For the growth study with amino acid supplements, the defined medium was complemented with Bacto® casamino acids (Difco, Detroit, Mich.) at a concentration of 2 g·l^−1 or with amino acid (alanine, glycine, methionine or valine) at a concentration of 0.5 g·l^−1 each.
Valine and methionine were chosen to test due to their direct connection with the isoleucine pathway, and alanine and glycine for their indirect connection through the use of pyruvate, which is also a substrate for the isoleucine pathway.

The test system of the next assay is AHAS. To be noted: Eggeling et al. 1987; cited from earlier work.
Assay [2] concerns C. glutamicum ATCC 21799 harboring pAPE13. The assay is described as follows: IPTG induction of threonine dehydratase in batch fermentation of ATCC 21799 (pAPE13). It counts as cell-based, Corynebacterium glutamicum. Conditions: IPTG 150 mg/l added at 1.5 g cell dry weight·l^−1. Here is the method: (§1) For determination of threonine dehydratase activity, the assay mixture contained 40 mM threonine, 1 mM pyridoxal phosphate, crude extract and 100 mM potassium phosphate buffer, pH 8.0 in a final volume of 1 ml. The reaction was started with the addition of threonine and terminated by the addition of 1 ml solution containing 1% semicarbazide and 0.9% sodium acetate. After a 15 min incubation at room temperature, the amount of alpha-ketobutyrate formed at various intervals was measured spectrophotometrically as its semicarbazone derivative at 254 nm (=0.52 mmol·cm^−1). Relevant standards and controls were carried out in the same manner. For specific determination of catabolic threonine dehydratase activity, the assay mixture contained 20 mM isoleucine in order to inhibit the anabolic threonine dehydratase.
(§2) In FIGS. 3-6, the results of the enzymatic assays are expressed in terms of relative expression of threonine dehydratase compared to wild type expression as the ratio between the specific activity of the enzyme of a strain and the specific activity of the wild type. Each assay was replicated five times, and the results were reproducible within 15%.
(§3) Starter cultures of Corynebacterium glutamicum were prepared by transferring one colony from LB agar plates to 5 ml of LB medium. These cultures were incubated for two days at 30° C. and 200 rpm. […]

Assay [3] concerns C. glutamicum ATCC 21799 harboring pAPE7. Nature of the assay: IPTG induction of catabolic threonine dehydratase in batch fermentation of ATCC 21799 (pAPE7). It counts as cell-based, Corynebacterium glutamicum. Conditions: IPTG 150 mg/l. The procedure: as §1, §2, §3
Another assay relates to C. glutamicum ATCC 21799. The assay is described as follows: IPTG addition in batch fermentation of wild type ATCC 21799. To be noted: wild type culture, IPTG 150 mg/l. It counts as cell-based, Corynebacterium glutamicum. The procedure: as §1
In FIGS. 3-6, the results of the enzymatic assays are expressed in terms of relative expression of threonine dehydratase compared to wild type expression as the ratio between the specific activity of the enzyme of a strain and the specific activity of the wild type. […]
C. glutamicum ATCC 21799 was grown twice in defined medium in a 4-liter reactor. […] A concentration of isoleucine of 50 mg·l^−1 was detected at the end of both cultures. Oxygenation of the cultures being sufficient, neither lactate nor acetate was detected during the fermentation.

Assay [4] has as its target T1, endogenous threonine dehydratase (encoded by ilvA) (Corynebacterium glutamicum, UniProt Q04513).
T1 construct: host or cells: Corynebacterium glutamicum MH20-22B
T1 sequence (Q04513 1-436): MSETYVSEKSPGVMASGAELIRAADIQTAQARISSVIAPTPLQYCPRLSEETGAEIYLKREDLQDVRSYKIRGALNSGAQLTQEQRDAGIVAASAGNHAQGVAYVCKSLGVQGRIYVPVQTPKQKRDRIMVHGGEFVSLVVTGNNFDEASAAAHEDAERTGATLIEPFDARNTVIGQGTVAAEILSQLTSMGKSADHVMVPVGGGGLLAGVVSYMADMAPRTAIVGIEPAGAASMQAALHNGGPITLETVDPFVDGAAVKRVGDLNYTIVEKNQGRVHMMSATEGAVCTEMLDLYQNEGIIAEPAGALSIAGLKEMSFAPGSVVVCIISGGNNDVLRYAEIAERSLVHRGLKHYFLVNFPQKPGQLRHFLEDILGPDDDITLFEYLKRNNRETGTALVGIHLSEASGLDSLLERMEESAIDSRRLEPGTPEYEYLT
To be noted: C. glutamicum MH20-22B; Morbach et al. 1995; cited from earlier work.

Assay [5] has as its target T2, Anabolic threonine dehydratase (Corynebacterium glutamicum, UniProt Q04513).
T2 construct: endogenous in cells; host or cells: Corynebacterium glutamicum ATCC 21799; cell-free crude extract
The assay is described as follows: Isoleucine sensitivity of anabolic (native) threonine dehydratase in crude extracts of C. glutamicum ATCC21799. Format: biochemical. Conditions: ATCC 21799 crude extract. Here is the method: (§4) Enzyme assays were performed with cell free crude extracts, prepared by the following method. Cells were harvested by centrifugation for 10 min at 5000×g at 4° C. and washed with 10 ml of the enzyme assay buffer (100 mM Tris-HCl, pH 7.5, containing 20 mM KCl, 5 mM MnSO4, 0.1 mM EDTA, and 2 mM dithiothreitol) (Jetten, M. S. M., et al., Appl. Microbiol. Biotechnol. 41:47-52 (1994)). The cell pellet was resuspended in the same buffer containing a protease inhibitor cocktail (Boehringer Mannheim, Germany) so that the final concentration was 20 g dry cell weight·l^−1. Resuspended cells were disrupted with a glass bead mixer (5100 Mixer-Mill, SPEX, Metuchen, N.J.). […] Protein concentrations were determined by the method of Bradford (Bradford, M. M., Anal. Biochem. 72:248-254 (1976)) with the Bio-Rad (Hercules, Calif.) protein assay kit using bovine serum albumin as a standard.
(§5) For determination of threonine dehydratase activity, the assay mixture contained 40 mM threonine, 1 mM pyridoxal phosphate, crude extract and 100 mM potassium phosphate buffer, pH 8.0 in a final volume of 1 ml. […] After a 15 min incubation at room temperature, the amount of alpha-ketobutyrate formed at various intervals was measured spectrophotometrically as its semicarbazone derivative at 254 nm (=0.52 mmol·cm^−1). […]

A further assay deals with T3, tdcB gene product (Escherichia coli, UniProt P0AGF6).
T3 construct: tdcB and ilvA coding regions were amplified by the Polymerase Chain Reaction (PCR); expressed in transfected cells; host or cells: E. coli AB1255 carrying pAPE5 (pTrc99a-based, trc:tdcB); cell-free crude extract
Nature of the assay: Threonine dehydratase activity of E. coli AB1255 (pAPE5) crude extracts in the presence of isoleucine. It counts as biochemical. To be noted: isoleucine up to 47 mM; consistent activity. The procedure: as §4, §5

Assay [6] addresses T4, catabolic threonine dehydratase (Escherichia coli, UniProt P0AGF6).
T4 construct: tdcB and ilvA coding regions were amplified by the Polymerase Chain Reaction (PCR); expressed in transfected cells; host or cells: Corynebacterium glutamicum ATCC 21799 carrying pAPE7 (trc:tdcB); cell-free crude extract
The assay is described as follows: Isoleucine sensitivity of catabolic threonine dehydratase (tdcB) in crude extracts of C. glutamicum ATCC 21799 (pAPE7). It counts as biochemical, E. coli. Here is the method: Enzyme assays were performed with cell free crude extracts, prepared by the following method. Cells were harvested by centrifugation for 10 min at 5000×g at 4° C. and washed with 10 ml of the enzyme assay buffer (100 mM Tris-HCl, pH 7.5, containing 20 mM KCl, 5 mM MnSO4, 0.1 mM EDTA, and 2 mM dithiothreitol) (Jetten, M. S. M., et al., Appl. Microbiol. Biotechnol. 41:47-52 (1994)). The cell pellet was resuspended in the same buffer containing a protease inhibitor cocktail (Boehringer Mannheim, Germany) so that the final concentration was 20 g dry cell weight·l^−1. Resuspended cells were disrupted with a glass bead mixer (5100 Mixer-Mill, SPEX, Metuchen, N.J.). 2.5 ml of bacterial suspension was poured in a frozen steel vial containing 5 g of cold 106 μm-diameter glass beads (Sigma) and one stainless steel ball bearing. The vials containing bacterial suspension and glass beads were vigorously shaken at 4° C. using the mixer by 10 cycles of 30 sec shaking separated by rest cycles of one minute. Cell debris were removed by centrifugation for 20 min at 47000×g at 4° C. The supernatant (crude extract) was then tested for enzyme activity. Protein concentrations were determined by the method of Bradford (Bradford, M. M., Anal. Biochem. 72:248-254 (1976)) with the Bio-Rad (Hercules, Calif.) protein assay kit using bovine serum albumin as a standard.
as §5
In order to confirm the insensitivity to isoleucine of catabolic dehydratase expressed in a lysine producing strain of C. glutamicum, threonine dehydratase activities were measured in crude extracts of strains ATCC21799 and ATCC21799 carrying pAPE7 at different concentrations of isoleucine (FIG. 3). […]

The target in assay [7] is mutated threonine dehydratase V323A (Corynebacterium glutamicum, UniProt Q04513, V323A). Conditions: 50 mM isoleucine; Morbach et al. 1995; cited from earlier work.
mutated threonine dehydratase V323A, sequence (Q04513 whole entry V323A): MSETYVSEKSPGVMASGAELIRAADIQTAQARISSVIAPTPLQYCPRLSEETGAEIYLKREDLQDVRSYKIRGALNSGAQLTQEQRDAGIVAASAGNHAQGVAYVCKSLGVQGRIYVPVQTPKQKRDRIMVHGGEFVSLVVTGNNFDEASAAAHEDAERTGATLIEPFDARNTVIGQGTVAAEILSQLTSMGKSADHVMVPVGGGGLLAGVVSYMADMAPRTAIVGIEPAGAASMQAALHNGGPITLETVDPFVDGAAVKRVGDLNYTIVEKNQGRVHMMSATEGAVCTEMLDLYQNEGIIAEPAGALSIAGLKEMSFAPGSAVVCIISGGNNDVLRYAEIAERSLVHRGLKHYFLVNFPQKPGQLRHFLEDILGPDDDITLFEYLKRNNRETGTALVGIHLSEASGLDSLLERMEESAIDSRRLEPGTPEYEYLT

T4 sequence (P0AGF6 whole entry): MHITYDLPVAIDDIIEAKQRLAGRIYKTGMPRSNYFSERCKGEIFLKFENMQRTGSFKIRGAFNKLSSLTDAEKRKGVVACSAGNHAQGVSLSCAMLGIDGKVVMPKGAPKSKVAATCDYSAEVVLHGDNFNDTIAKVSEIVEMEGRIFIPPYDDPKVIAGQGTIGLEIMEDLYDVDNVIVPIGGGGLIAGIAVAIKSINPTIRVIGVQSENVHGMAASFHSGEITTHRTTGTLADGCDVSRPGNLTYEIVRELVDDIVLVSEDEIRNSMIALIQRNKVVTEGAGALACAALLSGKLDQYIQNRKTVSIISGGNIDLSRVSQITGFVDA
T3 sequence (P0AGF6 whole entry): as above

In assay [1], `CSCC[C@H](N)C(=O)O` [Methionine, methionine] returned a Specific growth rate of 0.26 h⁻¹.
Same read-out and setting: under `C[C@H](N)C(=O)O` [Alanine, alanine] stands 0.17 h⁻¹; under `NCC(=O)O` [Glycine, glycine], 0.17 h⁻¹.
Turning to `CCC(=O)C(=O)O` [alpha-ketobutyrate], in the assay with AHAS, the “affinity of AHAS for alpha-ketobutyrate relative to pyruvate” value is 3 fold.
For `CC(C)[C@H](N)C(=O)O` [Valine, valine], the Specific growth rate in assay [1] stood at 0.24 h⁻¹.
As to `CC(C)S[C@@H]1O[C@H](CO)[C@H](O)[C@H](O)[C@H]1O` [IPTG, isopropyl-β-D-thiogalactopyranoside], in assay [2], the “increase in the level of threonine dehydratase after addition of IPTG” value came to 20 fold. In addition, the “catabolic threonine dehydratase concentration relative to original enzyme after addition of IPTG” value in assay [3] is reported as 15 fold. The “effect of IPTG addition on threonine dehydratase” value with C. glutamicum ATCC 21799 is recorded as “did not lead to an increase”.
As a reminder, the remaining activity is the signal under treatment as a percentage of the control signal. A word on the inhibition: it is the share of the control response that was lost under treatment. Lower therefore signals little suppression. With `CC[C@H](C)[C@H](N)C(=O)O` [isoleucine], the “isoleucine concentration giving complete inhibition of the endogenous threonine dehydratase” value in assay [4] is on record as 5 mM. Moreover, the “isoleucine concentration that totally inhibits the native (anabolic) threonine dehydratase” value in [5] is listed as 15 mM. Besides, the “threonine dehydratase activity of AB1255 (pAPE5) extracts in the presence of isoleucine” value on tdcB gene product is given as “about 80 μmol product·min^−1·mg protein^−1”. The remaining activity at 50000 µM in assay [6] (50 mM isoleucine, read-out: remaining activity of catabolic threonine dehydratase of E. coli) lay in the range of 70 to 80%. Moreover, in [6] (200 mM isoleucine), the inhibition at 200000 µM stood at 40% and the “retained original activity of catabolic threonine dehydratase” value is 60%. In addition, the “remaining activity of mutated threonine dehydratase V323A” value in assay [7] is on record as 22%.
